Measurements reported in patent publication US11364211B2, “Methods for selecting phosphatase selective and non-selective phosphatase inhibitors” (MEDICAL RESEARCH COUNCIL, priority 2015, dated 2022).
Entries after “also recorded” stand apart in the source; their conditions may differ.

Assays:
PPP1R15B-PP1 complex = molecular target: T1, PPP1R15B-PP1 complex (Homo sapiens, UniProt Q5SWA1); assay: SPR steady-state binding to R15B-PP1c holophosphatase on streptavidin chip; conditions: SPR
T1 construct: 340-698 of PPP1R15B were His-tagged and cloned into pMAL-c5x; made in house; host or cells: R15B fragment: E. coli BL21-Gold; BAP-PP1γ: Sf9 insect cells (baculovirus)
T1 sequence (Q5SWA1 340-698): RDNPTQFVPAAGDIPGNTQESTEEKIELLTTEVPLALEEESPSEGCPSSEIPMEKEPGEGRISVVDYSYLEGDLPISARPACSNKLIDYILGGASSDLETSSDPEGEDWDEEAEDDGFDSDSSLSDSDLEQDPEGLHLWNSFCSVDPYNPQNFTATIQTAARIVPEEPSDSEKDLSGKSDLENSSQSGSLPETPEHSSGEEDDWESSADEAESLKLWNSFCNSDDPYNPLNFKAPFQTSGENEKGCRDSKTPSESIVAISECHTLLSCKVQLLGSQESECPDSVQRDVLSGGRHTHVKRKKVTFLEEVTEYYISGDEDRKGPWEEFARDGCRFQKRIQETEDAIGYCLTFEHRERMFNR
T1 sequence (P36873 whole entry partner, the tested form may be a part): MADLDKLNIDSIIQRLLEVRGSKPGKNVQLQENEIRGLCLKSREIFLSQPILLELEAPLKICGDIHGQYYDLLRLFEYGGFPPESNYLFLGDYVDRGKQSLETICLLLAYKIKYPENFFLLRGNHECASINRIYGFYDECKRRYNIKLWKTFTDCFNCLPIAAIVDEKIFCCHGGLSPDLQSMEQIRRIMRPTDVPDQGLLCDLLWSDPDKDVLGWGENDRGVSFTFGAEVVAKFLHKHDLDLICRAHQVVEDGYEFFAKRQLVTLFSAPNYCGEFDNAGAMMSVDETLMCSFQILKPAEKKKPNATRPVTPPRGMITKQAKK
Procedure: The streptavidin coated surface was activated by 1 min injection with a solution of 50 mM NaOH and 1 M NaCl. Biotin-PP1 was diluted in the running buffer (50 mM Tris pH 7.5, 100 mM NaCl, 0.1 mM EGTA, 1 mM MnCl2, 0.05% Tween 20) and injected at approximately 300 nM concentration directly to streptavidin coated surface for 100 sec or to reach immobilization level of biotin-PP1 corresponding to ˜7000 RU. A blank immobilization was performed for one of the SA sensor chip surface to use as a reference.
With minor deviations, the same procedure and conditions were used in all binding experiments. Small molecules were stored as 50 mM stock solutions in 100% DMSO. Prior to determining binding constants, serial dilutions of either 12 or 8 concentrations of the compounds were prepared in the running buffer in a 96-well plate. […] Then, without regenerating the surface, the compound dilution series was injected onto the surface of the chip Sensorgrams were analyzed using the Biacore T200 evaluation software and the binding constants determined based on a steady-state model. Kinetic experiments are carried out using different concentrations of the compound and their respective equilibrium binding levels determined.
Surface Plasmon Resonance (SPR) was used to measure the binding affinity of compounds to the PPP1R15A/B-PP1 phosphatase complex. Biotin acceptor peptide (BAP) was fused to the N-terminus of PP1γ, which enables the biotinylation of the BAP-tagged protein in Sf9 insect cells. After purification the BAP-PP1γ protein was captured on a streptavidin sensor chip (SA-chip, GE healthcare) to a response level of ˜5.000 RU. Using controlled biotinylation enables orientated and uniform immobilization on the sensor chip surface. The PP1γ was then used to capture PPP1R15A/B and form a holophosphatase complex on the surface of the streptavidin chip. This complex can then be used to test binding of compounds. 10 μM PPP1R15A/B protein concentration was used to form the holophosphatase complex during a 80 s injection. […] After the concentration series (8 or 12 concentrations) is completed the surface is regenerated with 3 M NaCl and we can capture R15A/B again to form a fresh holophosphatase complex to measure a binding of another compound concentration series. Analysing the level of equilibrium binding as a function of concentration gives interaction affinities or steady-state binding affinity (KD).
The streptavidin coated surface was activated by 1 minute injection with a solution of 50 mM NaOH and 1 M NaCl three times at a flow rate of 10 μl/min. bio-GBZ or bio-PP1c was diluted in the running buffer (50 mM Tris pH 7.5, 100 mM NaCl, 0.1 mM EGTA, 0.05% Tween 20, 0.1% DMSO) and injected at approximately 300 nM concentration at a flow rate of 10 μl/min directly to streptavidin coated surface to reach immobilization level of bio-GBZ or bio-PP1c corresponding to ˜200 and 6000 RU, respectively. A blank immobilization was performed for one of the SA sensor chip surface to use as a reference.
With minor deviations, the same procedure and conditions were used in all binding experiments. Small molecules were stored as 50 mM stock solutions in 100% DMSO. Prior to determining binding constants, serial dilutions of either 12 or 8 concentrations of the compounds were prepared in the running buffer in a 96-well plate. […] This was followed by 1 minute stabilization period, to wash off any unspecific binding. Then, without regenerating the surface, the compound dilution series was injected onto the surface of the chip at a flow rate of 30 μl/min for 1 minute, followed by 2 minutes dissociation time. After each dilution series the surface was regenerated using 3 M NaCl for 90 seconds. […] In order to be able to correct for small variations in DMSO concentration between samples, eight solvent samples ranging from 0.06 to 8% DMSO were injected every 50th cycle. The flow cell temperature was 10° C.

PP1c = PP1c (Homo sapiens, UniProt P36873); assay: PP1c catalytic activity assay (EnzChek); type: biochemical; conditions: purified PP1c 30 nM, 30 minutes at 4° C.
Chain of PP1c (P36873 whole entry): as the sequence (P36873 whole entry partner, the tested form may be a part) above
Procedure: Residual activity of PP1c was then measured using the EnzChek Phosphatase Assay Kit (Thermo Fisher Scientific) according to the supplier's instructions.

[1] = test system: eIF2α phosphorylation in HeLa cells; assay: eIF2α phosphorylation in cells in the absence of stress (immunoblot); type: cell-based, human; conditions: for eIF2α phosphorylation in the absence of stress: human/HeLa cells, basal conditions, TST3 at 10 μM
Procedure: For immunoblots, HeLa cells (80,000 cells/ml) were plated in 12-well plates 24 hours before each experiment. Immediately after the indicated treatments, cells were lysed in 75 μl Laemmli Buffer, boiled at 95° C. for 5 minutes and sonicated. Proteins were separated and analysed as described (Tsaytler et al., Science, 332, 91-94, 2011) with the following antibodies: phospho-elf2α [pS52] and PPP1R15A/GADD34 (10449-1-AP; ProteinTech Group, 1/1000 dilution).
Human cells were treated with a PPP1R15B inhibitor and eIF2α phosphorylation was monitored over time. […] This was manifested between 1 and 7.5 hours after addition of the compound of Example 1. […] Indeed, the inventors noticed that PPP1R15A was induced at the late time points following addition of the compound of Example 1 (see Assay 3). […] Furthermore, this establishes that the compound of Example 1 spares PPP1R15A. This assay can serve to identify other selective PPP1R15B inhibitors.
Cells (90,000 cells/ml) were plated in a 24-well plate and treated as indicated. At the end of treatment cells were lysed in 150 μl Laemmli Buffer. Lysates were boiled at 95° C. for 5 minutes, sonicated and resolved on 4-12% Bolt Bis-Tris Plus Gels (Thermo Fisher Scientific). Proteins were transferred to the nitrocellulose membrane using the iBlot 2 system (Thermo Fisher Scientific) and analysed using the following antibodies: e-IF2α-P (44-728G, Thermo Fisher Scientific, 1:1000), e-IF2α (ab5369, Abcam, 1:1000), tubulin (T5168, Sigma-Aldrich, 1:4000), BiP (610978, BD Biosciences Pharmingen, 1:1000), ATF4 (sc-200, Santa Cruz Biotechnology, 1:500), Ppp1r15a (10449-1-AP, Proteintech, 1:1000) and Ppp1r15b (14634-1-AP, Proteintech, 1:1000). Proteins were visualized using ECL Prime (GE Healthcare).

[2] = Guanabenz-like side effects: mouse activity after acute dosing; type: in vivo; conditions: 10 mg/kg oral gavage, 30 minutes following dosing
Procedure: To assess whether of a compound of Example 1 had the side effects of Guanabenz, mice (n>3) were gavaged orally with 10 mg/kg of compound or Guanabenz. Their activity was monitored 30 minutes following dosing.
In order to assess the GBZ-like side effects (due to the adrenergic activity) of treatment the motor performance of mice was monitored after a single administration of TST3. To this end mice were treated with TST3 and left in a cage for 60 minutes. Mice behaviour was monitored every 15 minutes. Mice similarly treated with GBZ were used as a control.

| inhibition of PP1c in enzymatic assay (PP1c) | Compound | binding to R15B-PP1c (in words) (PPP1R15B-PP1 complex) | Kd (PPP1R15B-PP1 complex; steady-state affinity) [nM] | inhibition of PP1c in enzymatic assay (PP1c; listed as TST3) | eIF2α phosphorylation in the presence of GBZ ([1]; HeLa cells, TST3+GBZ at 10 μM) | time after addition at which eIF2α phosphorylation returned to basal levels ([1]; absence of stress) [h] | eIF2α phosphorylation in the absence of stress [1] | eIF2α phosphorylation in the absence of stress ([1]; listed as TST3) | side effects of Guanabenz / activity of mice after dosing ([2]; 10 mg/kg) | binding to R15B-PP1c (in words) (PPP1R15B-PP1 complex; listed as GBZ) | side effects of Guanabenz / activity of mice after dosing [2] |
| --- | --- | --- | --- | --- | --- | --- | --- | --- | --- | --- | --- |
| – | [H]/N=C(\N)NN=Cc1cccc(Cl)c1Cl [Example 1, (E)-2-(2,3-dichlorobenzylidene)hydrazine-1-carboximidamide] | bound strongly and selectively | 33 | does not inhibit PP1c; also recorded: doesn't inhibit PP1 | persistently induces eIF2α phosphorylation; also recorded: rendered persistent | 10 | induced eIF2α phosphorylation; also recorded: induces a transient phosphorylation of eIF2α | transiently induces eIF2α phosphorylation; also recorded: rapidly and transiently increased eIF2α phosphorylation | as active as untreated mice; also recorded: devoid of the side effects of Guanabenz; also recorded: does not cause the side effects of Guanabenz | – | – |
| does not inhibit PP1c | N=C(N)N/N=C/c1c(Cl)cccc1Cl [Guanabenz, reference compound] | – | – | – | – | – | did not affect | – | – | not or weakly; also recorded: no binding was detected | did not move |
